According to ChEMBL document CHEMBL5678818, “Discovery of potent SOS1 inhibitors that block RAS activation via disruption of the RAS-SOS1 interaction” (Proc Natl Acad Sci U S A, 2019):

How the values were obtained:
Homo sapiens [1] = species: Homo sapiens; assay: Inhibition of N-terminal GST-tagged recombinant human SOS1 N879V mutant (564 to 1049 residues) expressed in Escherichia coli assessed as reduction in KRAS G12C mutant activation at 10 uM by HTRF analysis relative to control
Homo sapiens [2] = species: Homo sapiens; assay: Inhibition of N-terminal GST-tagged recombinant human SOS1 H905M mutant (564 to 1049 residues) expressed in Escherichia coli assessed as reduction in KRAS G12C mutant activation at 10 uM by HTRF analysis relative to control
[3] = target: RAC-beta serine/threonine-protein kinase (Homo sapiens) (UniProt P31751); assay: Inhibition of AKT2 (unknown origin) assessed as residual activity at 100 nM by KINOMEscan analysis relative to control
[4] = target: Calcium/calmodulin-dependent protein kinase type 1D (Homo sapiens) (UniProt Q8IU85); assay: Inhibition of CAMK1D (unknown origin) assessed as residual activity at 100 nM by KINOMEscan analysis relative to control
[5] = target: Calcium/calmodulin-dependent protein kinase kinase 2 (Homo sapiens) (UniProt Q96RR4); assay: Inhibition of CAMKK2 (unknown origin) assessed as residual activity at 100 nM by KINOMEscan analysis relative to control
[6] = target: T1, Serine/threonine-protein kinase DCLK2 (Homo sapiens) (UniProt Q8N568); assay: Inhibition of DCAMKL2 (unknown origin) assessed as residual activity at 100 nM by KINOMEscan analysis relative to control
T1 sequence (whole entry): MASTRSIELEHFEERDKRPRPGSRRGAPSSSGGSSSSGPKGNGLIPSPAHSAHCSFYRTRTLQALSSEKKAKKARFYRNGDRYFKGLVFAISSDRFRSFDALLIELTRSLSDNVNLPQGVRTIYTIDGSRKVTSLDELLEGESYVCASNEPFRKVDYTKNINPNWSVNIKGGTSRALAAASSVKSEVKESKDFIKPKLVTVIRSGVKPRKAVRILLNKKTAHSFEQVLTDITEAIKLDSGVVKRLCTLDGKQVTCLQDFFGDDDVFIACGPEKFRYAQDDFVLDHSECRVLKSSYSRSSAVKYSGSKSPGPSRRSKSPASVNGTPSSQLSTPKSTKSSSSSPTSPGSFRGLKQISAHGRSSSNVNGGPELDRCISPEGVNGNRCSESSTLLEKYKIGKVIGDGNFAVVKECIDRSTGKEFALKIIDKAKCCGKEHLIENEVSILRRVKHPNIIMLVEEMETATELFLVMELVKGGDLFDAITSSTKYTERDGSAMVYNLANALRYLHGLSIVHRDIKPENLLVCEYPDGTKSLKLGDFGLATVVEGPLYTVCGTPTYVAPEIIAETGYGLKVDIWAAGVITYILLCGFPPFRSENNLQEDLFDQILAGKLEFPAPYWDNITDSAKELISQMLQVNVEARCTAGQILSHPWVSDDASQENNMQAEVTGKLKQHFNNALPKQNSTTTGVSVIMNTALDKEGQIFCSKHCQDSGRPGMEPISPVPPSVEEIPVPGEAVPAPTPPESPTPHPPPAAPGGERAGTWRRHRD

[7] = target: Tyrosine-protein kinase Fes/Fps (Homo sapiens) (UniProt P07332); assay: Inhibition of FES (unknown origin) assessed as residual activity at 100 nM by KINOMEscan analysis relative to control
[8] = system: Receptor-type tyrosine-protein kinase FLT3 (Homo sapiens), P36888 [D835H]; assay: Inhibition of FLT3 D835H mutant (unknown origin) assessed as residual activity at 100 nM by KINOMEscan analysis relative to control
[9] = target: Insulin receptor-related protein (Homo sapiens) (UniProt P14616); assay: Inhibition of INSRR (unknown origin) assessed as residual activity at 100 nM by KINOMEscan analysis relative to control
[10] = target: Mitogen-activated protein kinase kinase kinase 4 (Homo sapiens) (UniProt Q9Y6R4); assay: Inhibition of MAP3K4 (unknown origin) assessed as residual activity at 100 nM by KINOMEscan analysis relative to control
[11] = target: Dual specificity mitogen-activated protein kinase kinase 2 (Homo sapiens) (UniProt P36507); assay: Inhibition of MEK2 (unknown origin) assessed as residual activity at 100 nM by KINOMEscan analysis relative to control
[12] = target: Serine/threonine-protein kinase Nek6 (Homo sapiens) (UniProt Q9HC98); assay: Inhibition of NEK6 (unknown origin) assessed as residual activity at 100 nM by KINOMEscan analysis relative to control
[13] = target: T2, Mitogen-activated protein kinase 12 (Homo sapiens) (UniProt P53778); assay: Inhibition of p38-gamma (unknown origin) assessed as residual activity at 100 nM by KINOMEscan analysis relative to control
T2 sequence (whole entry): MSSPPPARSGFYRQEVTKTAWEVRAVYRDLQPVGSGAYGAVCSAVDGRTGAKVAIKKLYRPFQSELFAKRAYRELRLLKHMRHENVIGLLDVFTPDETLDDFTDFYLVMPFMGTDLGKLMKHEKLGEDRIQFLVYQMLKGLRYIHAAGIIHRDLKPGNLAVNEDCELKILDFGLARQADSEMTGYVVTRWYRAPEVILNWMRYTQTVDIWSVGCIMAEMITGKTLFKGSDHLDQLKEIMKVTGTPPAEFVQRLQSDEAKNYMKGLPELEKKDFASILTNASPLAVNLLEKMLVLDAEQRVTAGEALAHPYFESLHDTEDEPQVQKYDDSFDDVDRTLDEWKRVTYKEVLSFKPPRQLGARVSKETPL

[14] = system: Phosphatidylinositol 4,5-bisphosphate 3-kinase catalytic subunit alpha isoform (Homo sapiens), P42336 [H1047L]; assay: Inhibition of PIK3CA H1047L mutant (unknown origin) assessed as residual activity at 100 nM by KINOMEscan analysis relative to control
[15] = target: Phosphatidylinositol 4,5-bisphosphate 3-kinase catalytic subunit beta isoform (Homo sapiens) (UniProt P42338); assay: Inhibition of PIK3CB (unknown origin) assessed as residual activity at 100 nM by KINOMEscan analysis relative to control
[16] = target: Phosphatidylinositol 4,5-bisphosphate 3-kinase catalytic subunit gamma isoform (Homo sapiens) (UniProt P48736); assay: Inhibition of PIK3CG (unknown origin) assessed as residual activity at 100 nM by KINOMEscan analysis relative to control
[17] = target: Serine/threonine-protein kinase PRP4 homolog (Homo sapiens) (UniProt Q13523); assay: Inhibition of PRP4 (unknown origin) assessed as residual activity at 100 nM by KINOMEscan analysis relative to control
[18] = target: Proto-oncogene tyrosine-protein kinase receptor Ret (Homo sapiens) (UniProt P07949); assay: Inhibition of RET (unknown origin) assessed as residual activity at 100 nM by KINOMEscan analysis relative to control
[19] = target: Ribosomal protein S6 kinase alpha-6 (Homo sapiens) (UniProt Q9UK32); assay: Inhibition of N-terminal RSK4 […] domain 1 (unknown origin) assessed as residual activity at 100 nM by KINOMEscan analysis relative to control
Sequence of Ribosomal protein S6 kinase alpha-6 (Homo sapiens) (Q9UK32 whole entry): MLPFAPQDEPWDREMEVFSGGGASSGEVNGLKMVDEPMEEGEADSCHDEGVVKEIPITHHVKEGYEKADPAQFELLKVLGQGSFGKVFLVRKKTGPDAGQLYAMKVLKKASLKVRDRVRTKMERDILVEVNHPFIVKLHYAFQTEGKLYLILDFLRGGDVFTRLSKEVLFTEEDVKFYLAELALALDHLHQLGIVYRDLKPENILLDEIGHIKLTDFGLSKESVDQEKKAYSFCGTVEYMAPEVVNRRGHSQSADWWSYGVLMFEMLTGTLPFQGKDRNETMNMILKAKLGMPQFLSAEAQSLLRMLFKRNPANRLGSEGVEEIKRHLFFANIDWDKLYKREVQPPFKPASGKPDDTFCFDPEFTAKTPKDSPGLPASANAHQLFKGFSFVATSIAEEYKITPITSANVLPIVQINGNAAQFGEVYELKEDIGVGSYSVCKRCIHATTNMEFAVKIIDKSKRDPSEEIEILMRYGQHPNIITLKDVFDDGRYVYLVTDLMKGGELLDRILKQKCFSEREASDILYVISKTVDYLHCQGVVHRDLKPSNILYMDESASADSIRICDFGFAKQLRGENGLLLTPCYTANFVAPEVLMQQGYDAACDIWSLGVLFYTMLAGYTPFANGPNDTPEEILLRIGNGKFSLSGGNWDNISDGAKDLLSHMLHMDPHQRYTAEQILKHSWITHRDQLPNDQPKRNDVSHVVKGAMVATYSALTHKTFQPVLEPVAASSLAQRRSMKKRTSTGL

Sequence of Dual specificity mitogen-activated protein kinase kinase 2 (Homo sapiens) (P36507 whole entry): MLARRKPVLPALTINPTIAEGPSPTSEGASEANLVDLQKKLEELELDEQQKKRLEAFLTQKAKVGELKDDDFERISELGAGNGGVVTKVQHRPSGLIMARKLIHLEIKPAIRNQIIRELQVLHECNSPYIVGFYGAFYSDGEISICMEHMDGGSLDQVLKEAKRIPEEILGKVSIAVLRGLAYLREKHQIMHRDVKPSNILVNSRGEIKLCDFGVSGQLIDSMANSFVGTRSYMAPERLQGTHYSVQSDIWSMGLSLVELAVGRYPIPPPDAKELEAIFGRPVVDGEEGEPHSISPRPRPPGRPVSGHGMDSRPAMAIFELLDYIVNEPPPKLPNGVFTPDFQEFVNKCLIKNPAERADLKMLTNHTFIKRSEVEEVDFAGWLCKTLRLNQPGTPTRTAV
Sequence of Proto-oncogene tyrosine-protein kinase receptor Ret (Homo sapiens) (P07949 whole entry): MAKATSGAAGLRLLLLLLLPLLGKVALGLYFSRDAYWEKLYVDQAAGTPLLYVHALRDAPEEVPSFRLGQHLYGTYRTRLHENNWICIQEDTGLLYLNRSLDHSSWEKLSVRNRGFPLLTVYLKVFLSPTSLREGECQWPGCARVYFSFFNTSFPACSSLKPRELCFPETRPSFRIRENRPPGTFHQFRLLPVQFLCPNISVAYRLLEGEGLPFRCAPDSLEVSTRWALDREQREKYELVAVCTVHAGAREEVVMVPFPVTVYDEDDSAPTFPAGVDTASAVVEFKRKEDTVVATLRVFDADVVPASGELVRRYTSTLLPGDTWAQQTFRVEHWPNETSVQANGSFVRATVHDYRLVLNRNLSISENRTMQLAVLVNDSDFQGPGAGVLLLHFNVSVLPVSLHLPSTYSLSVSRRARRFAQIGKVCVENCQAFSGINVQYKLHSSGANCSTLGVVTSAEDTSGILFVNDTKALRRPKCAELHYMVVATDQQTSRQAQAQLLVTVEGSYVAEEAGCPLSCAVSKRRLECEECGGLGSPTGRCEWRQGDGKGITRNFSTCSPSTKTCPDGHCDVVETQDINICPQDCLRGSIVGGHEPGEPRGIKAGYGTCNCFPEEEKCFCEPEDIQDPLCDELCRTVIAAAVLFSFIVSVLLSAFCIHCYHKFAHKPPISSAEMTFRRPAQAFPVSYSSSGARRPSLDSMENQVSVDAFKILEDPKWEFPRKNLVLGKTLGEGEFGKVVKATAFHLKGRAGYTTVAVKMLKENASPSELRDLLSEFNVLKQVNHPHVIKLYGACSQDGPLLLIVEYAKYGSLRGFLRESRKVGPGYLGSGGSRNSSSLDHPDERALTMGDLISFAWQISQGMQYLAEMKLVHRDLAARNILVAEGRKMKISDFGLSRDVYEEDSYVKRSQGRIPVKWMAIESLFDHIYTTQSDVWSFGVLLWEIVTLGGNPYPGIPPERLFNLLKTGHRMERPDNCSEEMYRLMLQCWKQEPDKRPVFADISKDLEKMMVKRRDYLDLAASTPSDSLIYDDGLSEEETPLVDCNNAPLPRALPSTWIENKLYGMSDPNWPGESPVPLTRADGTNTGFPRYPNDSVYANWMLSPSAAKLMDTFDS
Sequence of Tyrosine-protein kinase Fes/Fps (Homo sapiens) (P07332 whole entry): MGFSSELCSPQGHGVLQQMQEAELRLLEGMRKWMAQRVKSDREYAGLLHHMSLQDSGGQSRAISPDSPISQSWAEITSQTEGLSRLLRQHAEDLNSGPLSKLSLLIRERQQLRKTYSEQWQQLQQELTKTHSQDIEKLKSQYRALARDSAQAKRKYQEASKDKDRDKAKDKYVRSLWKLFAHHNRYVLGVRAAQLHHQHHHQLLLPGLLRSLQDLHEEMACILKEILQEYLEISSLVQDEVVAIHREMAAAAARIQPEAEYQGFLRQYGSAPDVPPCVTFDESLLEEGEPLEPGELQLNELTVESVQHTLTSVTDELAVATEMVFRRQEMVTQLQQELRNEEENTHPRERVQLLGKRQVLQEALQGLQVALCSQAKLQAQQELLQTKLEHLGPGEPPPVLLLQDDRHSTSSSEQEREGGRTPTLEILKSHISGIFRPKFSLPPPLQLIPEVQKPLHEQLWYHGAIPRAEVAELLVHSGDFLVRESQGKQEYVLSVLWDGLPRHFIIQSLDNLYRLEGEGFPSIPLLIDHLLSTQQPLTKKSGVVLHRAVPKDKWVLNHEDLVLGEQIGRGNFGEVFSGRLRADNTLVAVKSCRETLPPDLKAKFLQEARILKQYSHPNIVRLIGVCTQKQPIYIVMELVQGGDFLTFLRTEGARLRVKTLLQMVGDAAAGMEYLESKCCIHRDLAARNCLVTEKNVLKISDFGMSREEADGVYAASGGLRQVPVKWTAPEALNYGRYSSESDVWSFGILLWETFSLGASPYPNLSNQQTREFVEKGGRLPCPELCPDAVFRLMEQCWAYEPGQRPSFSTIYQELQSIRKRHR
Sequence of Serine/threonine-protein kinase Nek6 (Homo sapiens) (Q9HC98 whole entry): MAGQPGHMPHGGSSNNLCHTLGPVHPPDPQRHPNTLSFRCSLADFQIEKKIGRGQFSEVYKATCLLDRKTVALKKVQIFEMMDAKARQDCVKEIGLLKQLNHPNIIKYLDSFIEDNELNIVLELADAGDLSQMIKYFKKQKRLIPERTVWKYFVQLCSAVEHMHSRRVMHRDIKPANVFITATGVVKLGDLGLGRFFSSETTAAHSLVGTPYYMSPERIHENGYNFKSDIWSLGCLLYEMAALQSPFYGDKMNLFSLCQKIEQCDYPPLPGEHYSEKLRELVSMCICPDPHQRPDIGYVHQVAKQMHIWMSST
Sequence of RAC-beta serine/threonine-protein kinase (Homo sapiens) (P31751 whole entry): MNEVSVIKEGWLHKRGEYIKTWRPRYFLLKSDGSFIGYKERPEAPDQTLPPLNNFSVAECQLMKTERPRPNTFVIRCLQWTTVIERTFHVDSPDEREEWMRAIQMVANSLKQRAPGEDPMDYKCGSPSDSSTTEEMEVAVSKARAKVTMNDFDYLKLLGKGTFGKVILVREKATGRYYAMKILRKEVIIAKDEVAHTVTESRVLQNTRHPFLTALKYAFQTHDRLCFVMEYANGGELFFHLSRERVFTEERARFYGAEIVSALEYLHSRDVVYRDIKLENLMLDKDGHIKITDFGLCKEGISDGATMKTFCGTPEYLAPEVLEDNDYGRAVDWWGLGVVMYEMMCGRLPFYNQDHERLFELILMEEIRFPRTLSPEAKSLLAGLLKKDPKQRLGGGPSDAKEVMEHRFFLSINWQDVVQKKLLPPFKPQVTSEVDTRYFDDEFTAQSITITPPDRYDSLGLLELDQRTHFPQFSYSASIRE
Sequence of Phosphatidylinositol 4,5-bisphosphate 3-kinase catalytic subunit beta isoform (Homo sapiens) (P42338 whole entry, looked up, canonical isoform): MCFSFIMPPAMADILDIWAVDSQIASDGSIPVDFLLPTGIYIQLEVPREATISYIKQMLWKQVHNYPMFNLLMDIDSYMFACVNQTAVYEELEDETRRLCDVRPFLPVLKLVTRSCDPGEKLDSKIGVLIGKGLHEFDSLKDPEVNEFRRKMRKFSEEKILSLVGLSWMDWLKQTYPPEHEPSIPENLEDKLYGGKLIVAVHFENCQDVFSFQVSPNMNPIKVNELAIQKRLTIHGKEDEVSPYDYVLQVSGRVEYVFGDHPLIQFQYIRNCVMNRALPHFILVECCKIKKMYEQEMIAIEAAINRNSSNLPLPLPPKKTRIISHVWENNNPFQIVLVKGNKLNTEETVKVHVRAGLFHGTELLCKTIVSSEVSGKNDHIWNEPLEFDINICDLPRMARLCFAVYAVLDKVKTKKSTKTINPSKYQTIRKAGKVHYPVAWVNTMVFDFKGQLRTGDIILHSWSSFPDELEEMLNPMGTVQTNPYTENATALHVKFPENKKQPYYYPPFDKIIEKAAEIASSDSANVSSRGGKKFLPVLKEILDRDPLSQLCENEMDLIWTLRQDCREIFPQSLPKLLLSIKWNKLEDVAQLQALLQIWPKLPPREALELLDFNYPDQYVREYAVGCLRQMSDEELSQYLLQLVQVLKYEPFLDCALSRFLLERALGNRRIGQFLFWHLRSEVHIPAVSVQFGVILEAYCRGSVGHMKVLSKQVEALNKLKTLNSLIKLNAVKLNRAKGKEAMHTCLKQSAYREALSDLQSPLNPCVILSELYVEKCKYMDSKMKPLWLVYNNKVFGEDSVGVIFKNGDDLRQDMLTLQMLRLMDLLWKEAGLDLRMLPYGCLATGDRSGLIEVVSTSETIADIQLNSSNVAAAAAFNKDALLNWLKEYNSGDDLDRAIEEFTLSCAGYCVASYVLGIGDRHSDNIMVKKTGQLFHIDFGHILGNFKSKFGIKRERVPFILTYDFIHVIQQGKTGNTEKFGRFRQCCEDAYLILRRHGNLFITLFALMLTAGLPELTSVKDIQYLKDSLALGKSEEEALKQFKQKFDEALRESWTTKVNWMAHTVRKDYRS

COc1cc2ncnc(N[C@H](C)c3cccc4ccccc34)c2cc1OC
inhibition (Homo sapiens [1]): 51% | inhibition (Homo sapiens [2]): 39% | Activity [3]: 88% | Activity [4]: 88% | Activity [5]: 60% | Activity [6]: 82% | Activity [7]: 78% | Activity [8]: 92% | Activity [9]: 92% | Activity [10]: 68% | Activity [11]: 90% | Activity [12]: 79% | Activity [13]: 96% | Activity [14]: 73% | Activity [15]: 72% | Activity [16]: 78% | Activity [17]: 95% | Activity [18]: 86% | Activity [19]: 94%
